Results published in patent US20190112580A1, “METHODS FOR TREATING CO[…] AND RELATED CULTURED CELLS” (priority 2017, published 2019).

Test system: CP myoblast cultures
Assay: Real-time qPCR gene expression profiling in fusing CP myoblasts
Assay type: cell-based, human
Design: key to JAG2 Expression / ATP2A1 Expression / DLL1 Expression / MYF5 Expression / ATP2A2 Expression / JAG1 Expression / SIX1 Expression / MYH7 Expression / CDKN1A Expression / NRG1 Expression / DLK1 Expression: relative expression vs non-treated; ≥2 up, ≤0.5 down
Description: To investigate whether additional signaling pathways and genes were affected by 5-AZA treatment, real-time qPCR was used to analyze the expression of 91 genes involved in myogenesis, neurogenesis and adipogenesis in fusing CP myoblasts after 24 hours of pretreatment with 5 μM of 5-AZA (Supp. Table 2A). […] Also, 5-AZA pretreatment led to upregulation of transcription regulators involved in myogenesis and other signaling pathways (BMI1, SIX1, SIX4, EGR3, FOXO1, MAPK14, MEF2A, MEF2C, MYF5, MYOG, NEUROD2, NOTCH2, PAX3, PAX7, PPARA, PPARD, PPARG, RPBJ, RARA). […] Impairment in other signaling pathways involved in myoblast fusion and myotube formation (e.g., TMEM8C/Myomaker, Rho GTPases, MAPKs, Calcineurin-NFATc2, NF-KB, WNT, MMPs) may also contribute to the decrease in myogenic potential of CP myoblasts.
Myoblasts, treated or non-treated with 5 μM 5-AZA for 24 hours, were cultured in high serum medium until they reached 80-90% confluence. After switch to low-serum medium, myoblast preparations were allowed to differentiate for 24-72 hours before RNA extraction. Total RNA was isolated and purified from myoblast cell culture preparations using Trizol reagent (Ambion—Life Technologies) according to manufacturer's recommendations. First-strand cDNA synthesis from purified RNAs and qPCR amplification was performed using the GoTaq 2-Step RT-qPCR System kit (Promega) according to manufacturer's protocols. Resulting cDNAs were subjected to SYBR Green-based real-time amplification using a C1000 Thermal Cycler apparatus (Bio-Rad). Each PCR amplification reaction (20 μl volume) contained 100 ng of starting cDNA template and primers amplifying a specific gene. Gene expression profiling during myoblast differentiation was investigated using predesigned 96-well gene panels for use with SYBR Green (SABioscience) (Tables 1A and 2A).
The predesigned 96-well gene panels utilized expertly designed and experimentally validated PCR primers and assays and included 3 reference genes for relative gene expression normalization and quantification: HPRT1, TBP and AP3DI. These reference genes were specifically validated for our experimental treatment and conditions and were selected among 15 experimentally tested candidates and analyzed using the software packages Bestkeeper, geNorm and Normfinder. Cycling conditions for SYBR Green primers consisted of an initial step at 50° C. (2 minutes) and a first denaturizing step at 95° C. (2 minutes), followed by 50 cycles of a thermal step protocol consisting of 95° C. (20 seconds), 60° C. (20 seconds) and 72° C. (20 seconds). A standard melt curve profiling consisting of a 65-95° C. thermal ramp was performed at the end of each protocol. Gene expression quantification was performed using Bio-Rad CFX Manager software. Positively and negatively regulated genes were selected following a P<0.05 and a 2 or 0.5 expression level respectively. Functional gene classification was performed using The Database for Annotation, Visualization and Integrated Discovery (DAVID) v6.8 (at <https://david.ncifcrf.gov/>).

[1] = 5 μM 24 hours pretreatment vs non-treated CP, 48-72 hours of differentiation
[2] = gene ACTA1, 5 μM 24 h pretreatment vs non-treated CP
[3] = gene ACTG1, 5 μM 24 h pretreatment vs non-treated CP
[4] = gene ACTN2, 5 μM 24 h pretreatment vs non-treated CP
[5] = gene ATP2A1, 5 μM 24 h pretreatment vs non-treated CP
[6] = gene ATP2A2, 5 μM 24 h pretreatment vs non-treated CP
[7] = gene BCL2, 5 μM 24 h pretreatment vs non-treated CP
[8] = gene BMI1, 5 μM 24 h pretreatment vs non-treated CP
[9] = gene CAV3, 5 μM 24 h pretreatment vs non-treated CP
[10] = gene CDKN1A, 5 μM 24 h pretreatment vs non-treated CP
[11] = gene DES, 5 μM 24 h pretreatment vs non-treated CP
[12] = gene DLK1, 5 μM 24 h pretreatment vs non-treated CP
[13] = gene DLL1, 5 μM 24 h pretreatment vs non-treated CP
[14] = gene EGR3, 5 μM 24 h pretreatment vs non-treated CP
[15] = gene FHL2, 5 μM 24 h pretreatment vs non-treated CP
[16] = gene FOXO1, 5 μM 24 h pretreatment vs non-treated CP
[17] = gene ITGA7, 5 μM 24 h pretreatment vs non-treated CP
[18] = gene ITGB1, 5 μM 24 h pretreatment vs non-treated CP
[19] = gene JAG1, 5 μM 24 h pretreatment vs non-treated CP
[20] = gene JAG2, 5 μM 24 h pretreatment vs non-treated CP
[21] = gene LRP4, 5 μM 24 h pretreatment vs non-treated CP
[22] = gene MAPK14, 5 μM 24 h pretreatment vs non-treated CP
[23] = gene MEF2A, 5 μM 24 h pretreatment vs non-treated CP
[24] = gene MEF2C, 5 μM 24 h pretreatment vs non-treated CP
[25] = gene MET, 5 μM 24 h pretreatment vs non-treated CP
[26] = gene MYF5, 5 μM 24 h pretreatment vs non-treated CP
[27] = gene MYF6, 5 μM 24 h pretreatment vs non-treated CP
[28] = gene MYH2, 5 μM 24 h pretreatment vs non-treated CP
[29] = gene MYH3, 5 μM 24 h pretreatment vs non-treated CP
[30] = gene MYH7, 5 μM 24 h pretreatment vs non-treated CP
[31] = gene MYH8, 5 μM 24 h pretreatment vs non-treated CP
[32] = gene MYH9, 5 μM 24 h pretreatment vs non-treated CP
[33] = gene MYOG, 5 μM 24 h pretreatment vs non-treated CP
[34] = gene NCAM1, 5 μM 24 h pretreatment vs non-treated CP
[35] = gene NEUROD2, 5 μM 24 h pretreatment vs non-treated CP
[36] = gene NOTCH2, 5 μM 24 h pretreatment vs non-treated CP
[37] = gene NRG1, 5 μM 24 h pretreatment vs non-treated CP
[38] = gene PAK1, 5 μM 24 h pretreatment vs non-treated CP
[39] = gene PAX3, 5 μM 24 h pretreatment vs non-treated CP
[40] = gene PAX7, 5 μM 24 h pretreatment vs non-treated CP
[41] = gene PDGFRA, 5 μM 24 h pretreatment vs non-treated CP
[42] = gene PDGFRB, 5 μM 24 h pretreatment vs non-treated CP
[43] = gene PPARA, 5 μM 24 h pretreatment vs non-treated CP
[44] = gene PPARD, 5 μM 24 h pretreatment vs non-treated CP
[45] = gene PPARG, 5 μM 24 h pretreatment vs non-treated CP
[46] = gene RARA, 5 μM 24 h pretreatment vs non-treated CP
[47] = gene RBPJ, 5 μM 24 h pretreatment vs non-treated CP
[48] = gene SHH, 5 μM 24 h pretreatment vs non-treated CP
[49] = gene SIX1, 5 μM 24 h pretreatment vs non-treated CP
[50] = gene SIX4, 5 μM 24 h pretreatment vs non-treated CP
[51] = gene TMEM8C, 5 μM 24 h pretreatment vs non-treated CP

## Nc1ncn([C@@H]2O[C@H](CO)[C@@H](O)[C@H]2O)c(=O)n1 [5-AZA, 5-azacytidine]
[1]
  genes significantly downregulated (of 91 genes): 7 genes
  genes significantly upregulated (of 91 genes): 43 genes
[2]
  ACTA1 Expression: 5.23
  ACTA1 Regulation: 5.2
[3]
  ACTG1 Expression: 0.09
  ACTG1 Regulation: −10.7
[4]
  ACTN2 Expression: 5.96
  ACTN2 Regulation: 6.0
[5]
  ATP2A1 Expression: 7.87
  ATP2A1 Regulation: 7.9
[6]
  ATP2A2 Expression: 3.26
  ATP2A2 Regulation: 3.3
[7]
  BCL2 Expression: 5.33
  BCL2 Regulation: 5.3
[8]
  BMI1 Expression: 2.97
  BMI1 Regulation: 3.0
[9]
  CAV3 Expression: 2.92
  CAV3 Regulation: 2.9
[10]
  CDKN1A Expression: 0.23
  CDKN1A Regulation: −4.4
[11]
  DES Expression: 6.23
  DES Regulation: 6.2
[12]
  DLK1 Expression: 16.51
  DLK1 Regulation: 16.5
[13]
  DLL1 Expression: 7.05
  DLL1 Regulation: 7.0
[14]
  EGR3 Expression: 14.93
  EGR3 Regulation: 14.9
[15]
  FHL2 Expression: 0.45
  FHL2 Regulation: −2.2
[16]
  FOXO1 Expression: 7.30
  FOXO1 Regulation: 7.3
[17]
  ITGA7 Expression: 4.22
  ITGA7 Regulation: 4.2
[18]
  ITGB1 Expression: 2.11
  ITGB1 Regulation: 2.1
[19]
  JAG1 Expression: 2.61
  JAG1 Regulation: 2.6
[20]
  JAG2 Expression: 10.19
  JAG2 Regulation: 10.2
[21]
  LRP4 Expression: 3.01
  LRP4 Regulation: 3.0
[22]
  MAPK14 Expression: 2.84
  MAPK14 Regulation: 2.8
[23]
  MEF2A Expression: 10.08
  MEF2A Regulation: 10.1
[24]
  MEF2C Expression: 5.79
  MEF2C Regulation: 5.8
[25]
  MET Expression: 2.07
  MET Regulation: 2.1
[26]
  MYF5 Expression: 6.99
  MYF5 Regulation: 7.0
[27]
  MYF6 Expression: 3.77
  MYF6 Regulation: 3.8
[28]
  MYH2 Expression: 6.99
  MYH2 Regulation: 7.0
[29]
  MYH3 Expression: 6.74
  MYH3 Regulation: 6.7
[30]
  MYH7 Expression: 2.15
  MYH7 Regulation: 2.1
[31]
  MYH8 Expression: 2.51
  MYH8 Regulation: 2.5
[32]
  MYH9 Expression: 0.17
  MYH9 Regulation: −5.8
[33]
  MYOG Expression: 7.72
  MYOG Regulation: 7.7
[34]
  NCAM1 Expression: 6.55
  NCAM1 Regulation: 6.6
[35]
  NEUROD2 Expression: 56.33
  NEUROD2 Regulation: 56.3
[36]
  NOTCH2 Expression: 3.12
  NOTCH2 Regulation: 3.1
[37]
  NRG1 Expression: 0.47
  NRG1 Regulation: −2.1
[38]
  PAK1 Expression: 4.49
  PAK1 Regulation: 4.5
[39]
  PAX3 Expression: 12.50
  PAX3 Regulation: 12.5
[40]
  PAX7 Expression: 2.88
  PAX7 Regulation: 2.9
[41]
  PDGFRA Expression: 0.38
  PDGFRA Regulation: −2.6
[42]
  PDGFRB Expression: 0.34
  PDGFRB Regulation: −2.9
[43]
  PPARA Expression: 2.69
  PPARA Regulation: 2.7
[44]
  PPARD Expression: 3.55
  PPARD Regulation: 3.6
[45]
  PPARG Expression: 24.42
  PPARG Regulation: 24.4
[46]
  RARA Expression: 2.19
  RARA Regulation: 2.2
[47]
  RBPJ Expression: 3.84
  RBPJ Regulation: 3.8
[48]
  SHH Expression: 23.75
  SHH Regulation: 23.8
[49]
  SIX1 Expression: 2.21
  SIX1 Regulation: 2.2
[50]
  SIX4 Expression: 3.20
  SIX4 Regulation: 3.2
[51]
  TMEM8C Expression: 3.59
  TMEM8C Regulation: 3.6
